According to article PMC5133935, “Hydrostatin-TL1, an Anti-Inflammatory Active Peptide from the Venom Gland of Hydrophis cyanocinctus in the South China Sea” (International Journal of Molecular Sciences, 2016):
No end group written: not given here.

Tested on: DSS-induced colitis in BALB/c mice
Assay: DSS-induced acute colitis (symptoms, DAI, body weight, spleen, colon length)
Format: in vivo, mouse
Text: The H. cyanocinctus specimens were captured during September 2005 in the South China Sea near Guangdong Province, People’s Republic of China. After collection, the snakes were killed, and the venom glands were isolated and immediately frozen in liquid nitrogen until use. HEK-293 human embryonic kidney and L929 mouse fibroblast cell lines were obtained from ATCC and cultured in Dulbecco’s modified Eagle’s medium (DMEM, Sigma-Aldrich, St. Louis, MO, USA) containing 10% (v/v) heat-inactivated fetal bovine serum (FBS, Gibco, BRL, Grand Island, NY, USA) at 37 °C in an atmosphere of 5% CO2. The BLT5403 E. coli strain (used as the phage host strain) was from Novagen (Merck) and was cultured at 37 °C for propagation. The specific pathogen-free (SPF) male BALB/c and C57BL/6 mice (both 6–8 weeks old), weighing 20 ± 2 g were purchased from Shanghai SLAC Laboratory Animal Co., Ltd. (Shanghai, China). The mice were housed in animal facilities with 50% humidity under a 12-h light-dark cycle, fed a standard pellet diet, and provided with tap water ad libitum. The animal experimental protocols in this research, including venom gland isolation and the mouse study, were approved by the Animal Care and Use Committee of the Second Military Medical University.
To induce colitis, 6–8 week old male BALB/c mice were administered 2.5% DSS solution in their drinking water for 7–8 consecutive days, ad libitum. Importantly, 30–40 kDa DSS was used to establish the animal model in this study because it is known to induce more severe colitis than 5 and 500 kDa DSS [37]. The mice were concomitantly administered H-TL1 (0.5 or 1 mg/kg) once daily for 7–8 consecutive days by intraperitoneal injection. Establishment of the DSS-induced colitis was evidenced by an increase in DAI, with associated weight loss, loose stool consistency, and presence of blood in the feces. DAI was monitored during the entire experiment and was assessed according to the method described in Table 1.

In the case of ATSKPSLKC-OH [H-TL1], the “recovery / general health” value (DSS + H-TL1 1 mg/kg, n = 8) is reported as “recovered, appearing similar in health to that of the normal group”, the “reduction in colon length” value (H-TL1 0.5 mg/kg, n = 8, * p < 0.05 vs. DSS group) is reported as “significantly attenuated the reduction in colon length” and the “disease activity index (DAI)” value (H-TL1 1 mg/kg i.p. once daily, Days 6–8, 2.5% DSS, n = 8, * p < 0.05, ** p < 0.01 vs. DSS group) is reported as “significantly decreased”. For the same substance, the “loss of body weight” value (H-TL1 1 mg/kg i.p. once daily, by Day 8, DSS + vehicle lost an average of 4.3 g more than normal group, n = 8) was 1.6 g, the “symptoms associated with DSS-induced colitis” value (H-TL1 1 mg/kg i.p. once daily, vs. vehicle-treated mice) was “significantly improved” and the spleen/body weight ratio (H-TL1 1 mg/kg, n = 8, * p < 0.05 vs. DSS alone) was “significantly lower”. For the same substance, the “reduction in colon length” value (H-TL1 1 mg/kg, n = 8, *** p < 0.001 vs. DSS group) was “significantly attenuated the reduction in colon length”.
